Data: patent publication US7129074B2, “Nucleoside triphosphate diphosphohydrolase (NTPDase 8) and uses thereof” (Université Laval, priority 2002, dated 2006)

T1: mouse NTPDase8 (Mus musculus, UniProt Q8K0L2)
T1 construct: expressed in transfected cells; host or cells: COS-7
T1 sequence (Q8K0L2 1-497): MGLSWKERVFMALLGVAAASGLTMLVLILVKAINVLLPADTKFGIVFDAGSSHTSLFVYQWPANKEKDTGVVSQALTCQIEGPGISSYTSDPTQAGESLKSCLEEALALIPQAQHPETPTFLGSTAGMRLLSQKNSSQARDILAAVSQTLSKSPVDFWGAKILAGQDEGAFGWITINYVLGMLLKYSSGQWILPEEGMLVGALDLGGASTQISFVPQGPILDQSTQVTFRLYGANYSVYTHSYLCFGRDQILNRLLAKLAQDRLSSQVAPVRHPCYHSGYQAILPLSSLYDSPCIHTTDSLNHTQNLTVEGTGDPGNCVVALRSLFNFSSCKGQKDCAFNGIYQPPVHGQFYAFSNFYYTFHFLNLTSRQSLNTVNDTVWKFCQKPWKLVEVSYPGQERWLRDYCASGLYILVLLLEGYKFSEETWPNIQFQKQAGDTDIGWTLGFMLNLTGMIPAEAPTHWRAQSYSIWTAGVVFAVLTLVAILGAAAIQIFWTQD

T2: human NTPDase8 (Homo sapiens, UniProt Q5MY95, L62P)
T2 construct: expressed in transfected cells; host or cells: COS-7
T2 sequence (Q5MY95 1-495 L62P): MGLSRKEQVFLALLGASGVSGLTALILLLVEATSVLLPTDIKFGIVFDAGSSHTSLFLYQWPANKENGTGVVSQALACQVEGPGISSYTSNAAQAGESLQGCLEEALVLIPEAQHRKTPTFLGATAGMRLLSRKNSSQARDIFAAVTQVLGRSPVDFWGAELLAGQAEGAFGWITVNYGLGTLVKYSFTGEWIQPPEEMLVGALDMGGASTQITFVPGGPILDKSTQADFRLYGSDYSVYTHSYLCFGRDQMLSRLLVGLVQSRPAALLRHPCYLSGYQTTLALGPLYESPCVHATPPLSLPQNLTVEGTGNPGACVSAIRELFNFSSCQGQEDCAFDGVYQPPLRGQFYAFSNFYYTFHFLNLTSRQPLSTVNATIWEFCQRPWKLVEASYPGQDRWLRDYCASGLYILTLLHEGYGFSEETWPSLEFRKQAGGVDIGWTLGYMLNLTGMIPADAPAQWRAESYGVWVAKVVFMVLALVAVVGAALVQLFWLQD

B1: mNTPDase8: mouse nucleoside triphosphate diphosphohydrolase 8, SEQ ID NO:1, protein extract from transfected COS-7 cells (protein)
chain: T1 sequence (Q8K0L2 1-497)
modifications: PEPTIDE (1)...(497) Mouse HTPDase8
B2: mNTPDase1: mouse NTPDase1 protein extract from transfected COS cells (protein, UniProt P55772 1-510, looked up)
Ectonucleoside triphosphate …: MEDIKDSKVKRFCSKNILIILGFTSILAVIALIAVGLTQNKPLPENVKYGIVLDAGSSHTNLYIYKWPAEKENDTGVVQQLEECQVKGPGISKYAQKTDEIGAYLAECMELSTELIPTSKHHQTPVYLGATAGMRLLRMESEQSADEVLAAVSTSLKSYPFDFQGAKIITGQEEGAYGWITINYLLGRFTQEQSWLSLISDSQKQETFGALDLGGASTQITFVPQNSTIESPENSLQFRLYGEDYTVYTHSFLCYGKDQALWQKLAKDIQVSSGGVLKDPCFNPGYEKVVNVSELYGTPCTKRFEKKLPFDQFRIQGTGDYEQCHQSILELFNNSHCPYSQCAFNGVFLPPLHGSFGAFSAFYFVMDFFKKVAKNSVISQEKMTEITKNFCSKSWEETKTSYPSVKEKYLSEYCFSGAYILSLLQGYNFTDSSWEQIHFMGKIKDSNAGWTLGYMLNLTNMIPAEQPLSPPLPHSTYIGLMVLFSLLLVAVAITGLFIYSKPSYFWKEAV
modifications: COS cell extract
notes: mouse NTPDase1 protein extract from transfected COS cells

How the values were obtained:
[1] = target: T1, mouse NTPDase8; experiment: NTPDase activity measurement (Pi release, malachite green) on protein extracts of COS-7 cells transfected with mouse NTPDase8; type: biochemical; settings: for Vmax,app / Km: substrate of NTPDase8, Woolf-Augustinsson-Hofstee plot, mean ± SEM; for Km: read-out: Km,app
Procedure: COS-7 cells were transfected in 10 cm plates using Lipofectamine™ (Invitrogen), as previously described (Kaczmarek et al, 1996, JBC, 271:33116–33122). Briefly, cells were incubated for 5 h at 37° C. in DMEM in absence of foetal bovine serum (FBS) with 6 μg of plasmid DNA and 24 μl of Lipofectamine™ reagent. The reaction was stopped by adding an equal volume of DMEM containing 20% FBS and cell were harvested 40–44 h later. For protein preparation, transfected cells were washed three times with Tris-saline buffer at 4° C., harvested by scraping in 95 mM NaCl, 0.1 mM PMSF and 45 mM Tris, pH 7.5, and washed twice by 300×g centrifugation for 10 min at 4° C. Cells were resuspended in the harvesting buffer containing 10 μg/ml aprotinin and sonicated. Nucleus and cellular debris were discarded by another centrifugation as described above and the supernatants stored at −80° C. until used. Protein concentration was estimated by the Bradford microplate assay using bovine serum albumin (BSA) as a standard of reference (Bradford, 1976, Analyt. Biochem., 72:248–254).
(§1) Enzyme activity in the protein fractions was determined as previously described (Sévigny et al, 1997, Biochimica Biophysica Acta 1334:73–88) Briefly, enzyme activity was measured at 37° C. in 0.5 ml of the following incubation medium: […] either with 100 mM Tris, pH 7.4 or with 100 mM MES, pH 6.4 or as indicated. Enzyme preparation was added to the incubation mixture and pre-incubated at 37° C. for 3 min. Reaction was started by the addition of 0.5 mM substrate (ATP, ADP, UTP, UDP or AMP) and stopped after 20 min by the addition of 0.125 ml of the malachite green reagent (Baykov and Evtushenko, 1988, Analytical Biochemistry 171:266–270). Activity on intact cells was carried out in similar conditions in 24 wells plates, also 40–44 h after transfection, with the addition of 145 mM NaCl to the incubation medium. The reaction was stopped by taking 0.2 ml of the reaction mixture to a new tube containing 50 μl of malachite reagent. The inorganic phosphate […] released from the hydrolysis of exogenous nucleotides was measured according to Baykov et al. (Baykov and Evtushenko, 1988, Analytical Biochemistry 171:266–270)
Optimum pH was determined in the presence of 5 mM CaCl2 with the following buffers: 100 mM acetate (pH 4.0–5.5), 100 mM MES (pH 5.5–7.0), 100 mM Tris (pH 7.0–9.0) or 100 mM glycine pH (9.0–11.0). In the indicated experiments CaCl2 was substituted by MgCl2. To remove traces of divalent cations 1 mM EDTA plus 1 mM EGTA was added to the medium. One unit of enzyme activity corresponds to the release of 1 μmole Pi/min at 37° C. (LeBel et al., 1980, J. Biol. Chem. 255:1227–1233). All experiments were performed in triplicate with the appropriate controls.

[2] = target: T2, human NTPDase8; experiment: Activity on protein extracts from human NTPDase8 transient transfected COS-7 cells; type: biochemical; settings: substrate hydrolysis by human NTPDase8 protein extracts
Procedure: as §1
The activity of the protein extracts of human NTPDase8 was carried out as described previously herein and the results are shown in Table 3.

[3] = target: T1, mouse NTPDase8; experiment: HPLC separation and quantification of nucleotides hydrolysed by mouse NTPDase8; type: biochemical
Procedure: For HPLC analysis, activity assays were performed in 5 mM CaCl2 and 100 mM MES, pH 6.4 as described above with the following modifications. Aliquots of 20 μL were taken at different time points from the enzymatic reaction and activity stopped by the addition of an equal volume of ice-cold 1 M perchloric acid. The samples were centrifuged for 5 min at 1000×g at 4° C. Supernatants were neutralized with 1 M KOH (4° C.), centrifuged for a subsequent 5 min at 1000×g and then lipids were removed by liquid-liquid extraction with n-heptane (5:1, v/v). An aliquot of 20 μL from the lipid extracted sample was applied to a column connected to a HPLC system.
Adenine nucleotides (ATP, ADP and AMP) were separated on a 15 cm×4.6 mm, 3 μm SUPELCOSIL™ LC-18-T column (Supelco, Bellefonte, Pa., USA) with a mobile phase composed of 25 mM TBA, 5 mM EDTA, 100 mM KH2PO4/K2HPO4, pH 7.0 and 2% methanol (v/v), at a flow-rate of 1 ml/min. […] Combined adenine and uridine nucleotide samples were analyzed with the latter column with a mobile phase composed of 16.7 mM TBA, 3.3 mM EDTA, 66.7 mM KH2PO4/K2HPO4, pH 7.0. The flow rate was 0.5 ml/min for the first 20 min and 1 ml/min up to 90 min. The nucleotides were detected by UV absorption at 260 nm and identified by comparison of the retention time and UV spectrum with the appropriate standards.

[4] = tested on: platelet aggregation in PRP; experiment: ADP-induced platelet aggregation in human PRP (optic density at 600 nm); type: cell-based; settings: 4 uM ADP; PRP preincubated 25 seconds with 250 ug mNTPDase8 or 3 ug mNTPDase1 protein extracts
Procedure: Cell membrane preparation and platelet aggregation assays were performed as described before.
PRP prepared from human donors was tested for platelet activation in the presence of exogenous ADP and protein extracts from COS cell transfected with pcDNA3.11V5-His encoding mouse NTPDase8 (mNTPDase8) or mouse (mNTPDase1) (FIG. 6). Optic density at 600 nm was recorded over a period of 8 minutes. Before the addition of 4 uM ADP, PRP was preincubated for 25 seconds with 250 ug mNTPDase8 or 3 ug mNTPDase1 protein extracts, 250 ug untransfected COS cells or without protein extract (agonist: 4 uM ADP). Note that 4 uM ADP induced high levels of platelet aggregation in control samples.

Row | Molecule | Vmax,app [1] | Km [1] | Activity [2] | other results
1 | Nc1ncnc2c1ncn2[C@@H]1O[C@H](COP(=O)(O)OP(=O)(O)O)[C@@H](O)[C@H]1O [ADP] | 0.95 ± 0.08 U/mg of protein | 41 ± 6 µM | 55 ± 15 nmols Pi/min/mg | hydrolysis after 120 min ([3]; formed from ATP incubated with NTPDase8 extracts): completely hydrolyzed
2 | Nc1ncnc2c1ncn2[C@@H]1O[C@H](COP(=O)(O)O)[C@@H](O)[C@H]1O [AMP] | – | – | 2 ± 0.6 nmols Pi/min/mg | hydrolysis by NTPDase8 ([1]; in the presence of Ca2+): did not hydrolyze
3 | O=c1ccn([C@@H]2O[C@H](COP(=O)(O)OP(=O)(O)OP(=O)(O)O)[C@@H](O)[C@H]2O)c(=O)[nH]1 [UTP] | 1.13 ± 0.02 U/mg of protein | 47 ± 1 µM | 271 ± 35 nmols Pi/min/mg | –
4 | Nc1ncnc2c1ncn2[C@@H]1O[C@H](COP(=O)(O)OP(=O)(O)OP(=O)(O)O)[C@@H](O)[C@H]1O [ATP] | 0.82 ± 0.02 U/mg of protein | 13 ± 6 µM | 264 ± 7 nmols Pi/min/mg | –
5 | O=c1ccn([C@@H]2O[C@H](COP(=O)(O)OP(=O)(O)O)[C@@H](O)[C@H]2O)c(=O)[nH]1 [UDP] | 1.08 ± 0.06 U/mg of protein | 171 ± 15 µM | 38 ± 5 nmols Pi/min/mg | remaining concentration after 120 min ([3]; formed from UTP incubated with NTPDase8 extracts): 140 µM
6 | B1 | – | – | – | activity in absence of divalent cations ([1]; 1 mM EDTA and 1 mM EGTA, any of the substrates tested): no activity could be detected; pH of optimal activity ([1]; ADPase activity, evaluated from pH 4.0 to 11.0): ~6.4; pH range in which highly active ([1]; ATPase and ADPase activity, evaluated from pH 4.0 to 11.0): 5.5–7.0; ratio of hydrolysis ATP/ADP ([1]; in the presence of Ca2+): 1.6±0.3; ratio of hydrolysis UTP/UDP ([1]; in the presence of Ca2+): 2.1±0.3; inhibition of platelet aggregation [4]: 53%
7 | B2 | – | – | – | inhibition of platelet aggregation [4]: 100%
